Assay results published in patent US20260356846A1, “STATIN DERIVATIVES AND METHODS OF USING THE SAME” (The General Hospital Corporation, priority 2023, published 2026).
Where two headings read alike, the source gives them in different places.

Key:
[1] = system: STMN2 (WT STMN2-NLuc SH-SY5Y cells); assay: STMN2 nanoluciferase assay in WT SH-SY5Y cells (Table A: WT TDP-32; Table B: WT HD Luciferase); assay type: cell-based, human; conditions: WT cell line
Method: (§1) Neuroblastoma cells (ATCC) were cultured in DMEM/F12 (Gibco) supplemented with 10% fetal-bovine serum (Omega) and 1% penicillin-streptomycin (Gibco) at 37 °C with 5% CO2. For knockdown experiments, cells were transfected with SMARTpool ON-TARGETplus siRNA or control siRNA pool (D001810-10) (GE Dharmacon) at a final concentration of 50 nM, for 96 h in two doses (0, 24 h), after complexing with Lipofectamin RNAiMAX (Invitrogen) in Opti-MEM (Gibco) for 10 min.
(§2) WT and TDP-mut (N352S) SH-SY5Y cells were edited using CRISPR-Cas9 to express Nanoluciferase at the C-terminus of both endogenous STMN2 alleles. A single guided RNA targeting STMN2 C-terminus was designed (Benchling webtool) and cloned into pSpCas9-2A-green fluorescent protein (GFP) plasmid (px458-Addgene) using the BbsI restriction site. The sequence for guided RNA targeting STMN2 was: […]. For the repair template, overlapping fragments of 800 bp STMN2 homology arms flanking Nanoluciferase (NLuc, Promega) were generated and ligated into pUC57 backbone. A 42 bp GS-linker was also included 5′ to NLuc to prevent steric hindrance of the reporter to the final STMN2 exon. Fragments were ligated using Gibson Assembly and nucleofected simultaneously with pSpCas9-2A-GFP-gRNA plasmid using the Amaxa Nucleofector (assay A-023). Forty-eight hours following electroporation, cells were collected, and GFP-positive cells sorted and single-cell seeded into 96-well plates using the SH800S Sony cell sorter. Individual clones were expanded and DNA was extracted for PCR amplification of the STMN2 Ex5 genomic locus using primers within NLuc and outside the STMN2 5′ homology arm to confirm presence of the insert. The entire STMN2 coding region and all exon-intron junctions (>500-bp length of each intronic region) were then sequenced to verify the absence of any additional DNA alteration. qPCR analysis was performed with a wild-type isogenic SH-SY5Y cell line that had undergone the mutagenesis attempt but not acquired the insertion mutation during the original screening process.
(§3) TDP-mut STMN2-NLuc SH-SY5Y cells were used in small-molecule screening at ICCB-Longwood. 3000 cells/well were plated in white 384-well plates using a 50 ul sample volume. 24 hours after plating, compounds were added using 100 nl pin transfer. 24 hours later, 25 ul NLuc assay was added to each well according to manufacturer instructions (Promega, Cat #). Plates were shaken for 1 min prior to luminescence readings using EnVision2 machine. DMSO-only and WT STMN2-NLuc cells were included as negative and positive controls respectively on each plate, producing an average Z′score of ~0.7 across the screen. Each library plate was conducted in duplicate, and Z-scores calculated for each compound. For subsequent validation experiments, cell numbers in each well were quantified by hoescht staining at 1 μg/ml for 15 mins at 37C in black, clear bottom plates, prior to imaging at 4× using automated microscopy (ImageXpressMicro). Nuclei were then counted using a custom algorithm, and luciferase assay run as above. Luminescence results were then normalised against cell counts as RLU/cell.
(§4) Each compound was tested in triplicate in log doses ranging 0.01 μM−10 μM. The values are represented in luminescence normalized to the number of cells in the well, wherein darker grey correlates to higher RLU per cell and higher STMN2 protein expression.

[2] = system: STMN2 (TDP-mut (N352S) STMN2-NLuc SH-SY5Y cells); assay: STMN2 nanoluciferase assay in TDP-43 mutant SH-SY5Y cells (Table A: mut TDP-43; Table B: mut HD Luciferase); assay type: cell-based, human; conditions: mutant TDP-43 cell line
Method: as §1, §2, §3, §4

[3] = Homo sapiens, SH-SY5Y, Table B, read-out: EC50, WT HD Luciferase
[4] = Homo sapiens, SH-SY5Y, Table B, read-out: EC50, mut HD Luciferase
[5] = Homo sapiens, SH-SY5Y, Table B, Emax

EC50 [1, 3] [nM]	EC50 [2, 4] [nM]	HD Luciferase (WT, Emax) ([1]; Table B, Emax)	EC50 ([1]; Table B, read-out: EC50, WT HD Luciferase) [nM]	EC50 ([2]; Table B, read-out: EC50, mut HD Luciferase) [nM]	EC50 ([1]; Homo sapiens, SH-SY5Y, Table A, read-out: EC50, WT TDP-32) [nM]	EC50 ([2]; Homo sapiens, SH-SY5Y, Table A, read-out: EC50, mut TDP-43) [nM]	Structure (SMILES)	HD Luciferase (mut, Emax) ([2]; Table B)	maximal fold induction [1, 5]
≥ 500	≥ 500	–	–	–	–	–	COCc1c(C2CC2)nc(C)c(/C=C/[C@@H](O)C[C@@H](O)CC(=O)O)c1-c1ccc(F)cc1C [II-26, (3R,5S,E)-7-(6-cyclopropyl-4-(4-fluoro-2-methylphenyl)-5-(methoxymethyl)-2-methylpyridin-3-yl)-3,5-dihydroxyhept-6-enoic acid]	* (means≥1 and <1.25)	1 to 1.25
10 to 50	10 to 50	–	–	–	–	–	O=C(O)C[C@H](O)C[C@H](O)/C=C/c1c(C2CC2)nc(C2CC2)c(COC2CC2)c1-c1ccc(Cl)cc1F [II-23, (3R,5S,E)-7-(4-(4-chloro-2-fluorophenyl)-5-(cyclopropoxymethyl)-2,6-dicyclopropylpyridin-3-yl)-3,5-dihydroxyhept-6-enoic acid]	–	–
10 to 50	10 to 50	–	–	–	–	–	COCc1c(C2CC2)nc(C2CC2)c(/C=C/[C@@H](O)C[C@@H](O)CC(=O)O)c1-c1c(C)cccc1F [II-18, (3R,5S,E)-7-(2,6-dicyclopropyl-4-(2-fluoro-6-methylphenyl)-5-(methoxymethyl)pyridin-3-yl)-3,5-dihydroxyhept-6-enoic acid]	–	–
≤ 10	≤ 10	–	–	–	–	–	COCc1c(C2CC2)nc(C2CC2)c(/C=C/[C@@H](O)C[C@@H](O)CC(=O)O)c1-c1c(C)cc(F)cc1F [II-17, (3R,5S,E)-7-(2,6-dicyclopropyl-4-(2,4-difluoro-6-methylphenyl)-5-(methoxymethyl)pyridin-3-yl)-3,5-dihydroxyhept-6-enoic acid]	–	1.5 to 1.75
≤ 10	≤ 10	–	–	–	≤ 100	≤ 100	COCc1c(C2CC2)nc(C2CC2)c(/C=C/[C@@H](O)C[C@@H](O)CC(=O)O)c1-c1ccc(F)cc1Cl [II-9, (3R,5S,E)-7-(4-(2-chloro-4-fluorophenyl)-2,6-dicyclopropyl-5-(methoxymethyl)pyridin-3-yl)-3,5-dihydroxyhept-6-enoic acid]	–	1.5 to 1.75

Second part, the compound before the results:

Structure (SMILES)	EC50 [1, 3] [nM]	EC50 [2, 4] [nM]	HD Luciferase (WT, Emax) ([1]; Table B, Emax)	EC50 ([1]; Table B, read-out: EC50, WT HD Luciferase) [nM]	EC50 ([2]; Table B, read-out: EC50, mut HD Luciferase) [nM]	EC50 ([1]; Homo sapiens, SH-SY5Y, Table A, read-out: EC50, WT TDP-32) [nM]	EC50 ([2]; Homo sapiens, SH-SY5Y, Table A, read-out: EC50, mut TDP-43) [nM]	HD Luciferase (mut, Emax) ([2]; Table B)	maximal fold induction [1, 5]
O=C(O)C[C@H](O)C[C@H](O)/C=C/c1c(C2CC2)cc2ncsc2c1-c1ccc(F)cc1 [Example I-11, (3R,5S,E)-7-(5-cyclopropyl-7-(4-fluorophenyl)benzo[d]thiazol-6-yl)-3,5-dihydroxyhept-6-enoic acid]	10 to 50	10 to 50	–	–	–	–	–	** (means≥1.25 and <1.5)	–
Cc1cc2c(-c3ccc(F)cc3)c(/C=C/[C@@H](O)C[C@@H](O)CC(=O)O)c(C3CC3)nc2s1 [Example I-5b, (3R,5S,E)-7-(6-cyclopropyl-4-(4-fluorophenyl)-2-methylthieno[2,3-b]pyridin-5-yl)-3,5-dihydroxyhept-6-enoic acid]	–	–	** (means≥1.25 and <1.5)	100 to 500	50 to 100	–	–	** (means≥1.25 and <1.5)	–
Cc1csc2c(-c3ccc(F)cc3)c(CC[C@H](O)C[C@@H](O)CC(=O)O)c(C3CC3)nc12 [Example I-33, (3R,5S)-7-(5-cyclopropyl-7-(4-fluorophenyl)-3-methylthieno[3,2-b]pyridin-6-yl)-3,5-dihydroxyheptanoic acid]	100 to 500	100 to 500	–	–	–	–	–	** (means≥1.25 and <1.5)	–
